Biological target: T1, purified alkaline phosphatase from human osteosarcoma (bone isoenzyme) (Homo sapiens, UniProt P05186)
T1 construct: Human Osteosarcoma obtained from nude mice (nu/nu) was frozen at -70° C. until required; from tissue; host or cells: human osteosarcoma tumour tissue obtained from nude mice (nu/nu); enzyme purified by n-butanol extraction, acetone and ammonium sulfate precipitation, Bio Gel-HT, DEAE Sepharose and Sephacryl S-400
T1 sequence (P05186 18-502 limits assumed): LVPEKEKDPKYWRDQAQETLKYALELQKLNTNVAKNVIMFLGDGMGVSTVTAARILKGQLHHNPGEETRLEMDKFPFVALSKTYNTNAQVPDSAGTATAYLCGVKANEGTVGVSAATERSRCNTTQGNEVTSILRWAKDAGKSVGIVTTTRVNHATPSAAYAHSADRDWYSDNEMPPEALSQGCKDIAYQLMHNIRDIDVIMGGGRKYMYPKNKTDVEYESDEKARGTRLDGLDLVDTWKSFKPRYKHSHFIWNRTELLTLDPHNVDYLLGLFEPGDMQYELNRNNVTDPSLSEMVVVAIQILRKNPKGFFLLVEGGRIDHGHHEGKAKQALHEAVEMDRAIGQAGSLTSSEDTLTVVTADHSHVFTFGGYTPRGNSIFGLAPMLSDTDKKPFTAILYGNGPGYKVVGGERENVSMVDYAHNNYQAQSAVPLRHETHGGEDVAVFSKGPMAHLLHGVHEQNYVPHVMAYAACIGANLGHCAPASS
Experiment: Inhibition of alkaline phosphatase by amino acids (release of p-nitrophenol from p-nitrophenylphosphate)
Format: biochemical
Conditions: amino acid at 5 mM in the reaction mixture; 4 mM p-nitrophenylphosphate, pH 10.2
Protocol: The enzyme was assayed by measuring the release of p-nitrophenol from p-nitro-phenylphosphate at ambient temperature using a Gilford (model 250) recording spectrophotometer. The assay mixture (0.5 ml) contained 0.3M 2-amino-2-methyl-1-propanol, pH 10.2, 4 mM p-nitrophenylphosphate, 20 ug MgCl2 and 10 ul of diluted enzyme (u=micro). The formation of p-nitrophenol was measured spectrophotometrically at 410 nm. Units represent u moles of p-nitrophenol formed per minute at 22° C.
In order to define more clearly the isoenzyme, inhibition studies using amino acids were applied to the enzyme samples. The assay was carried out in the presence of L-homoarginine or L-phenylalanine at 5 mM concentration in the reaction mixtures respectively.
Based on the sensitivity to heat inactivation and inhibitions by L-homoarginine and L-phenylalanine, the properties of alkaline phosphatase from human osteosarcoma are consistent with those of the bone isoenzyme. It is generally considered in the art that the ALP from normal bone and osteosarcoma are probably identical.

SMILES	inhibition at 5000 µM
N[C@@H](Cc1ccccc1)C(=O)O [L-phenylalanine]	5%
N=C(N)NCCCC[C@H](N)C(=O)O [L-homoarginine]	64%

Reference: patent publication US5087573A, “Monoclonal antibody against bone alkaline phosphatase” (University of Kansas, priority 1988, dated 1992)
